Data reported in patent publication US12517131B2, “Methods for labeling eukaryotic cells from a multicellular organism as well as for treating and/or diagnosing a cancer using modified monosaccharide compounds” (DIAMIDEX, priority 2019, dated 2026).

Key:
Experiment in all cases: In vitro cytotoxicity of Ara-N3 probe (Annexin V/IP, MTS)
Type in all cases: cell-based, human
Settings in all cases: tested 1, 10, 50 and 100 mM, 24 h and 48 h
[1] = tested on: Macrophage (primary cells)
Procedure: (§1) The cell lines (as detailed below in the table) were provided by Inserm/Aquiderm transfer cell. Cell culture of cell lines and cell cytoxicity tests were also carried out by Aquiderm transfer cell, in the laboratory of INSERM U1035.
Human mononucleated cells were isolated from peripheral blood from 2 different healthy donors by convention established with the Etablissement Frangais du Sang d'Aquitaine. The technique used was Ficoll gradient isolation. Briefly, the blood diluted in a phosphate buffered saline solution (PBS) was deposited on a sucrose solution (Ficoll, Eurobio) and centrifuged in order to separate the different blood elements. Between Ficoll and plasma was established a cell ring composed of monocytes and lymphocytes. This was recovered and washed in PBS for counting on the Malassez cell.
Human CD14+monocytes were isolated from […] by magnetic beads coupled to an anti-CD14 antibody (Miltenyi Biotech). The mononuclear cells were incubated for 15 minutes, in PBS buffer, in the presence of a determined concentration of beads depending on the number of cells. […]
Briefly, after incubation of the cells with the Ara-N3 probe at different concentrations and at different times (24 h and 48 h), the cells were recovered, trypsinized (for adherent cells) and washed in PBS. […] They were then directly analyzed by cytometry after adding 100 μL of labeling buffer. […]

[2] = tested on: A431 (tumoral cell lines)
Procedure: as §1
(§2) The cells were cultivated in an oven at 37° C., 5% CO2 and 95% humidity, in different culture media: • either in RPMI 1640 medium supplemented with 10% of decomplemented FCS (Fetal calf serum) and antibiotics penicillin (100 IU/ml) and […] (100 μg/ml), for the pair Monocytes/THP1. • either in DMEM medium supplemented with 10% of decomplemented FCS and antibiotics penicillin (100 IU/ml) and […] (100 μg/ml) for the Hacat/A431 couple.
(§3) All the cells were seeded in culture plates, either in 96 wells at the density of 1*10^4 cells/well for the MTS proliferation test, either in 24 wells at the density of 5*10^4 cells/well for the Annexin V test/IP test. Then the cells were incubated at 37° C. and 5% CO2 for 24 hours. After 24 hours, the culture medium was changed in all the wells and the cells adhered to the bottom of the wells were rinsed twice in PBS (Eurobio) or centrifuged and washed twice in PBS for the cells in suspension, before being exposed to the Ara-N3 probe at different concentrations: 1, 10, 50 and 100 mM. The cells were incubated at 37° C. and 5% CO2 for 48 hours.
(§4) This test requires the use of an Annexin V-APC kit (Biolegend) for the detection of apoptosis/necrosis. This test uses the ability of Annexin V to bind to membrane phosphatidylserines (PS) and the intercalating properties of propidium iodide (PI) on DNA.
(§5) Briefly, after incubation of the cells with the Ara-N3 probe at different concentrations and at different times (24 h and 48 h), the cells were recovered, trypsinized (for adherent cells) and washed in PBS. After counting in trypan blue on the Malassez cell, the cells were incubated in a labeling buffer (100 μL) in the presence of Annexin V-APC (5 μL) and of IP (10 μL) for 15 minutes at room temperature and in the dark. They were then directly analyzed by cytometry after adding 100 μL of labeling buffer. […]

[3] = tested on: HACAT (immortalized cell lines)
Procedure: as §1, §2, §3, §4, §5

[4] = tested on: THP1 (tumoral cell lines)
Procedure: as §1, §2, §3, §4, §5

Measured: Non-toxic concentration of Ara-N3

[N-]=[N+]=NC[C@H]1OC(O)[C@@H](O)[C@@H]1O (stereo partly drawn) [Ara-N3, 5-azido-5-deoxy-D-arabinofuranose]
>10 mM: all assays above
